Laboratory results as given in article PMC8547495 (Journal of medicinal chemistry, 2021).
“Also recorded” adds a separate entry of the source.

How the values were obtained:
in vivo = conditions: male, C57BL/6, mouse, ip, 50 mg/kg
SARS-CoV-2 USA/WA1/2020 = type: cell-based; conditions: 20 μM, remdesivir 10 μM / 20 μM
A549 cells = conditions: for cytotoxicity compared with 1: at 100 μM; for concentration below which cytotoxicity was not observed: under the antiviral assay conditions, A549-hACE2
[1] = microsomes, 2 μM
SARS-CoV-2 PLpro [2] = biological target: T1, SARS-CoV-2 PLpro (Severe acute respiratory syndrome coronavirus 2, UniProt P0DTD1); type: biochemical; conditions: for PLpro inhibition potency in words: compared with GRL0617 / parent
SARS-CoV-2 PLpro [3] = biological target: T1, SARS-CoV-2 PLpro; assay: biochemical; type: binding
SARS-CoV-2 = conditions: at 33 μM, the maximum soluble dose; cited from earlier work

Question: Which Cmax (in vivo) does the source give for Cc1ccc(NC2CNC2)cc1C(=O)N[C@H](C)c1cccc(-c2ccc(CN3CCCC3)s2)c1 [XR8-24] here?
Answer: 12 to 13 µM

Question: What about the “effect of treatment on viral RNA versus remdesivir” value (SARS-CoV-2 USA/WA1/2020) of the same compound?
Answer: not significantly different from that of remdesivir; also recorded: not significantly different from the FDA-approved RdRp inhibitor remdesivir

Question: What about the “cytotoxicity compared with 1” value (A549 cells) of the same compound?
Answer: more cytotoxic than 1

Question: And the “concentration below which cytotoxicity was not observed” value (A549 cells)?
Answer: < 50 µM

Question: Which “human liver microsome stability in words” value [1] does the source give for Cc1ccc(NC2CNC2)cc1C(=O)N[C@H](C)c1cccc(-c2cccs2)c1 [ZN-3-80] here?
Answer: more stable than GRL0617

Question: Which “PLpro inhibition potency in words” value (SARS-CoV-2 PLpro [2]) does the source give for CC[C@@H](NC(=O)c1cc(N(C)C2CNC2)ccc1C)c1cccc2ccccc12 [ZN-3-61] here?
Answer: significant decrease in potency

Question: With CNC(=O)C[C@@H](NC(=O)c1cc(N(C)C2CNC2)ccc1C)c1cccc2ccccc12 [DY2-116] as the compound, how does the “PLpro inhibition potency in words” value (SARS-CoV-2 PLpro [2]) read?
Answer: almost completely inactive

Question: And the IC50 (SARS-CoV-2 PLpro [2]; read-out: Enzyme inhibition IC50, SARS-CoV-2 PLpro, Z-RLRGG-AMC substrate)?
Answer: > 100 µM

Question: And the Kd (SARS-CoV-2 PLpro [3])?
Answer: > 1000 µM

Question: What does the source list for Cc1ccc(NC2CNC2)cc1C(=O)N[C@H](C)c1cccc(-c2ccc(CNC3CCCC3)s2)c1 [XR8-23]?
Answer: Cmax (in vivo): 12 to 13 µM; cytotoxicity compared with 1 (A549 cells): more cytotoxic than 1; concentration below which cytotoxicity was not observed (A549 cells): < 10 µM

Question: With COc1cc(CNC(=O)C2CCN(C(C)c3cccc4ccccc34)CC2)ccn1 (racemic) [rac5c] as the compound, how does the “antiviral activity compared to remdesivir” value (SARS-CoV-2) read?
Answer: 60%

Question: Which “improvement in affinity relative to GRL0617” value (SARS-CoV-2 PLpro [3]; SPR) does the source give for Cc1ccc(NC2CNC2)cc1C(=O)N[C@H](C)c1cccc2ccccc12 [ZN-2-184] here?
Answer: two-fold improvement in affinity

Question: And the “gain in binding stabilization from SPR affinity” value (SARS-CoV-2 PLpro [3]; relative to GRL0617, engaging Site I or BL2 groove alone)?
Answer: 0.57 kcal/mol

Question: With Cc1ccc(N)cc1C(=O)N[C@H](CCO)c1cccc2ccccc12 [DY2-97] as the compound, how does the “PLpro inhibition potency in words” value (SARS-CoV-2 PLpro [2]) read?
Answer: almost completely inactive
